The target of one data set is human α4β2 nAChRs (Homo sapiens (Human), UniProt P17787+P43681). The data set is described as follows: 86Rb+ efflux assay, agonist activity, α4β2. The data set is classed as cell-based. The procedure:
(§1) Their agonist activities were assessed by measuring stimulated ^86Rb^+ efflux from stably transfected cells, either expressing human α4β2 nAChRs or rat α3β4 receptors.
(§2) The cell lines expressing defined rat nAChR subtypes were established previously by stably transfecting HEK 293 cells with rat nAChR subunit genes. The cell line expressing human α4β2 nAChRs, YXα4β2H1, was established recently. These cell lines were maintained in minimum essential medium (MEM) supplemented with 10% fetal bovine serum, 100 units/mL penicillin G, […] and selective antibiotics at 37° C. with 5% CO2 in a humidified incubator. Fetal bovine serum was provided by Gemini Bio-Products (Woodland, Calif.). Tissue culture medium and antibiotics were obtained from Invitrogen Corporation (Carlsbad, Calif.), unless otherwise stated.
Functional properties of compounds at nAChRs expressed in the transfected cells were measured using ^86Rb^+ efflux assays as described previously. In brief, cells expressing human α4β2 or rat α3β4 nAChRs were plated into 24-well plates coated with poly-D-lysine. The plated cells were grown at 37° C. for 18 to 24 hour to reach 85-95% confluence. The cells were then incubated in growth medium (0.5 mL/well) containing ^86Rb^+ (2 μCi/mL) for 4 hour at 37° C. The loading mixture was then aspirated, and the cells were washed four times with 1 mL buffer (15 mM HEPES, 140 mM NaCl, 2 mM KCl, 1 mM MgSO4, 1.8 mM CaCl2, 11 mM Glucose, pH 7.4). One mL of buffer with or without compounds to be tested was then added to each well. After incubation for 2 min, the assay buffer was collected for measurements of ^86Rb^+ released from the cells. Cells were then lysed by adding 1 ml of 100 mM […] to each well, and the lysate was collected for determination of the amount of ^86Rb^+ that was in the cells at the end of the efflux assay. Radioactivity of assay samples and lysates was measured by liquid scintillation counting. Total loading (cpm) was calculated as the sum of the assay sample and the lysate of each well. The amount of ^86Rb^+ efflux was expressed as a percentage of ^86Rb^+ loaded. […] For obtaining EC50 and Emax values, stimulation curves were constructed in which 8 different concentrations of a ligand were included in the assay. […] EC50, Emax and IC50(10′) values were determined by nonlinear least-squares regression analyses (GraphPad, San Diego, Calif.).
The functional properties of the ligands were determined by ^86Rb^+ efflux assays in cells expressing α3β4 and α4β2 nAChR subtypes. The functional activity of each ligand was measured for its agonism, antagonism and desensitization ability. Agonist activity for each of the ligands was tested at eight different concentrations. […]

Another data set concerns the target rat α3β4 nAChRs (Rattus norvegicus (Rat), UniProt P04757+P12392). The data set is described as follows: 86Rb+ efflux assay, agonist activity, α3β4. The data set is classed as cell-based. The procedure: as §1
The cell lines expressing defined rat nAChR subtypes were established previously by stably transfecting HEK 293 cells with rat nAChR subunit genes. The cell line expressing human α4β2 nAChRs, YXα4β2H1, was established recently. These cell lines were maintained in minimum essential medium (MEM) supplemented with 10% fetal bovine serum, 100 units/mL penicillin G, […] and selective antibiotics at 37° C. with 5% CO2 in a humidified incubator. Fetal bovine serum was provided by Gemini Bio-Products (Woodland, Calif.). […]
Functional properties of compounds at nAChRs expressed in the transfected cells were measured using ^86Rb^+ efflux assays as described previously. […] Radioactivity of assay samples and lysates was measured by liquid scintillation counting. Total loading (cpm) was calculated as the sum of the assay sample and the lysate of each well. The amount of ^86Rb^+ efflux was expressed as a percentage of ^86Rb^+ loaded. […] EC50, Emax and IC50(10′) values were determined by nonlinear least-squares regression analyses (GraphPad, San Diego, Calif.).
The functional properties of the ligands were determined by ^86Rb^+ efflux assays in cells expressing α3β4 and α4β2 nAChR subtypes. […]

Data set [1] addresses native nAChRs of rat forebrain (Rattus norvegicus, UniProt P09483+P12390). The class given is binding. As to conditions: Table 1. As for the experimental part:
(§3) To determine selectivities of these compounds in binding assays among the three predominant nAChR subtypes, α3β4, α4β2 and α7, the ratios of Ki values (α3β4/α4β2 and α7/α4β2) were determined.
Briefly, cultured cells at >80% confluence were removed from their flasks (80 cm^2) with a disposable cell scraper and placed in 10 mL of 50 mM Tris.HCl buffer (pH 7.4, 4° C.). The cell suspension was centrifuged at 10,000×g for 5 min and the pellet was collected. The cell pellet was then homogenized in 10 mL buffer with a polytron homogenizer and centrifuged at 36,000 g for 10 min at 4° C. The membrane pellet was resuspended in fresh buffer, and aliquots of the membrane preparation were used for binding assays. […] Bound and free ligands were separated by vacuum filtration through Whatman GF/C filters treated with 0.5% polyethylenimine. The filter-retained radioactivity was measured by liquid scintillation counting. Specific binding was defined as the difference between total binding and nonspecific binding. Data from competition binding assays were analyzed using Prism 5 (GraphPad Software, San Diego, Calif.).
We measured the in vitro binding affinities of the ligands for defined receptor subtypes (α2β2, α2β4, α3β2, α3β4, α4β2, α4Γ4, α6β2, α6β4, and α7) expressed in stably transfected cell lines. […] Rat forebrain homogenates were included to allow comparison between the heterologous and native α4β2 and α7 nAChRs.

Another data set deals with ferrets. The data set is described as follows: Emesis studies in ferrets. The data set is classed as in vivo, ferret (Mustela putorius furo). The procedure: Effects of (S)-15 in causing nausea and emesis were assessed in a ferret model. For comparison, varenicline was also tested. […] In general, all animals remained alert and active with periods of inactivity that mirrored their baseline behavior within the 1 hr observation period.
In one animal, this behavior was accompanied by oral stereotypy (licking), whereas in two animals it was interspersed by episodes of backward walking. On the average, these behaviors manifested around ˜2.20 min. […] Occasionally, when animals tried to ambulate they would immediately cease their movement after each attempt. This would, be followed by a momentary increase in breathing, giving the impression that the animal was in distress.
Studies were undertaken in male ferrets (Mustela putorius furo) weighing 0.9-1.5 kg (Marshall Farms, N.Y.). They were housed in controlled conditions of room temperature (22° C.) and light (12:12 h light-dark cycle) with free access to food and water. Prior to each experiment, food was withheld overnight, whereas water was provided ad libitum.
Emetic testing consisted of placing animals individually in a polycarbonate enclosure. Following a 30 min acclimation period, each animal randomly received a subcutaneus injection of varencline or compound (S)-15 (YL-1-127) in the subscapular region. A 60 min observation and video recording followed the drug administration. […] All drugs were dissolved in sterile saline.
Video analysis of the incidence of emesis, stereotypical behaviors (such as licking, mouth-clawing, backward walking, gagging, and burying of the head in cage) and GI side effects (diarrhea) was done off-line. Stereotypical behaviors are thought to be reflective of a subjective sensation of nausea. The emetic index of a drug was calculated as the percentage of animals displaying emesis (one or more times in 60 min) divided by the total number of animals tested. […]
The Nausea Index for the stereotypical behaviors was derived from the mean±SEM number of nausea behaviors observed among all animals in a given treatment group. Significance was determined at p<0.05.

In the next data set the target is rat α4β2 nAChR (Rattus norvegicus (Rat), UniProt P09483+P12390). The data set is classed as binding. As to conditions: versus Sazetidine-A. As for the experimental part: as §3, §2
Briefly, cultured cells at >80% confluence were removed from their flasks (80 cm^2) with a disposable cell scraper and placed in 10 mL of 50 mM Tris.HCl buffer (pH 7.4, 4° C.). […] The filter-retained radioactivity was measured by liquid scintillation counting. […] Data from competition binding assays were analyzed using Prism 5 (GraphPad Software, San Diego, Calif.).
We measured the in vitro binding affinities of the ligands for defined receptor subtypes (α2β2, α2β4, α3β2, α3β4, α4β2, α4Γ4, α6β2, α6β4, and α7) expressed in stably transfected cell lines. […]

Read-outs that look alike come from different tables or passages of the source.

For the compound `CN1CCC[C@H]1c1cccnc1` [(−)-Nicotine, (−)-nicotine, reference compound], the “agonist activity at α4β2 nAChRs” value at human α4β2 nAChRs is listed as “full agonist activities”. Also, the “agonist activity at α3β4 nAChRs” value at rat α3β4 nAChRs is listed as “full agonist activities”.
As to `CCCCC#Cc1cnc(C)c(OC[C@@H]2CCCN2)c1` [(S)-16, (S)-5-(hex-1-ynyl)-2-methyl-3-(pyrrolidin-2-ylmethoxy)pyridine], the “agonist activity at α4β2 nAChRs” value on human α4β2 nAChRs (result in words) is given as “didn't show detectable agonist activity”. Also, affinity in data set [1] was put at a Ki of 0.54 µM.
Consider `CCCCC#Cc1cnc(C)c(OC[C@@H]2CCN2)c1` [(S)-15, (S)-3-(azetidin-2-ylmethoxy)-5-(hex-1-ynyl)-2-methylpyridine], for which, in the data set on ferrets (1-30 mg/kg s.c., 1 hr observation), the “emetic episodes or stereotypical behaviors indicative of nausea” value was “did not elicit any emetic episodes or stereotypical behaviors that are indicative of nausea”. This compound gave a Ki in data set [1] of 0.052 µM.
Turning to `Cc1ncc(C#CCCCCCl)cc1OC[C@@H]1CCN1` [(S)-21, (S)-3-(azetidin-2-ylmethoxy)-5-(6-chlorohex-1-ynyl)-2-methylpyridine], at human α4β2 nAChRs (result in words), the “agonist activity at α4β2 nAChRs” value is recorded as “didn't show detectable agonist activity”. For the same compound, the Ki in data set [1] amounted to 0.032 µM.
In turn, `Cc1ncc(C#CC2CC2)cc1OC[C@@H]1CCN1` [(S)-27, (S)-3-(azetidin-2-ylmethoxy)-5-(cyclopropylethynyl)-2-methylpyridine] registered a Ki in data set [1] of 0.031 µM.
For `c1cnc2cc3c(cc2n1)[C@@H]1CNC[C@H]3C1` [Varenicline, varenicline], in the data set on ferrets (0.5 mg/kg s.c.), the emetic episodes entry is “no emetic episodes were observed” and the “time at which nausea behaviors manifested, on the average” value is about 2.20 min. In data set [1], the Ki was 0.0011 µM.
Regarding `Cc1ncc(C#CCCCCO)cc1OC[C@@H]1CCN1` [(S)-17, (S)-6-(5-(azetidin-2-ylmethoxy)-6-methylpyridin-3-yl)hex-5-yn-1-ol], the “reduction in binding affinity for α4β2 nAChRs” value at rat α4β2 nAChR came out at 70 fold. Also, the Ki in data set [1] is 0.011 µM.
On to `CCCCC#Cc1cnc(C)c(OC[C@H]2CCN2)c1` [(R)-15, (R)-3-(azetidin-2-ylmethoxy)-5-(hex-1-ynyl)-2-methylpyridine], for which the affinity in data set [1] corresponds to a Ki of 4.3 µM.
Still for that read-out and setting: in the case of `OCCCCC#Cc1cncc(OC[C@@H]2CCN2)c1` [Sazetidine-A, reference compound] it was 0.00017 µM.
Turning to `CCCCC#Cc1cnc(C)c(OC[C@H]2CCCN2)c1` [(R)-16, (R)-5-(hex-1-ynyl)-2-methyl-3-(pyrrolidin-2-ylmethoxy) pyridine], the affinity in data set [1] corresponds to a Ki of 110 µM.
Take `Cc1ncc(C#CCCCCF)cc1OC[C@@H]1CCN1` [(S)-22, (S)-3-(azetidin-2-ylmethoxy)-5-(6-fluorohex-1-ynyl)-2-methylpyridine]: the “agonist activity at α4β2 nAChRs” value at human α4β2 nAChRs (result in words) is on record as “didn't show detectable agonist activity”.

The term Ki denotes the equilibrium dissociation constant of an inhibitor or competing ligand from its target. The low end stands for a stronger hold on the target, the high end for a looser hold on the target.

(Values after US9993465B2, “2,5-disubstituted-pyridyl nicotinic ligands, and methods of use thereof” (Georgetown University, priority 2011, dated 2018).)
